Results published in US20260240842A1, “METHODS TO PREVENT THERAPY RESISTANCE IN MELANOMA VIA BLOCKING GENOMIC INSTABILITY” (THE REGENTS OF THE UNIVERSITY OF CALIFORNIA, priority 2022, published 2026).

Tested on: HSR harboring BRAF in M249 cells
Test: Metaphase DNA-FISH tracking emergence of BRAF HSR
Type: cell-based, human
Conditions: M249, day 31; DNA-PKi and/or PARPi given in combination with BRAFi+MEKi; FIG. 5G
From the text: FIGS. 5A-5H. Resistance-driver ecDNAs and HSRs dynamically track with resistance and DNA-PKi prevents size-expansion of ecDNAs and CGRs early on MAPKi treatment. FIGS. 5A to 5C, Metaphase DNA-FISH of paired parental and acquired resistant BRAF^V600MUT (5A and 5B) or NRAS^Q61MUT (5C) cell lines without or with drug withdrawal showing ecDNA- or HSR-amplicons harboring BRAF, RAF1 or NRAS. Left, representative images; right, quantifications per cell. Ruler, 15 μm. P values (Unpaired two-tailed Student's t-test): *, p<0.05; **, p<0.01; ***, p<0.001. FIGS. 5D to 5F: Three- (upper) and six-(lower) day MTT assay of indicated cell lines treated with graded concentrations of BRAFi+MEKi (5D and 5E) or MEKi (5F). Cell viability was normalized to respective DMSO/vehicle group. Inner brackets, comparisons between acquired-resistant sub-lines without and with drug withdrawal. Outer brackets, comparisons between acquired-resistant sub-lines and their isogenic parental cell lines. […] FIG. 5G: Representative images (left) and quantification (right) of metaphase DNA-FISH showing HSR harboring BRAF in M249 cells treated with vehicle or BRAFi+MEKi, with or without NU7026 and/or ABT888 for 31 days. […] FIG. 5H: Average total genomic spans of treatment-specific ecDNAs+CGRs in M229 and M245 cell lines (background ecDNA+CGR spans detected in vehicle-treated cells were filtered). […]

Structure (SMILES)	BRAF HSRs early on treatment
C[C@]1(c2nc3c(C(N)=O)cccc3[nH]2)CCCN1 [ABT888, veliparib]	suppression
O=c1cc(N2CCOCC2)oc2c1ccc1ccccc12 [NU7026]	suppression
